These are literature values, as cited in patent US20050159809A1, “Implantable medical devices for treating or preventing restenosis” (Medtronic Vascular, Inc., priority 2004, published 2005).

Each structure is given as a SMILES string.

The subject of this series is balloon-injury induced neointimal thickening and macrophage accumulation. Conditions: four weeks after balloon de-endothelialization.

In the case of `CC(C)(Sc1cc(C(C)(C)C)c(O)c(C(C)(C)C)c1)Sc1cc(C(C)(C)C)c(O)c(C(C)(C)C)c1` [probucol, {[bis(3,5-di-tert-butyl-4-hydroxyphenyl)thio]propane}], the absolute neointima thickness entry (high cholesterol rabbit food plus 1% probucol vs cholesterol-only diet, P<0.05) is “reduced”. Under “high cholesterol rabbit food plus 1% probucol vs high cholesterol feed without probucol, P<0.001”, the “macrophage content in the neointima” value is “lower”.
